Patent US20040105856A1 (priority 2002, published 2004)

How the values were obtained:
[1] = target: recombinant human histamine H4 receptor (Homo sapiens, UniProt Q9H3N8); settings: histamine 100 pM-100 uM, forskolin 3 uM
[2] = tested on: croton oil induced topical inflammation in mice; settings: H4 ANTAG #1 10 mg/kg

Chain of recombinant human histamine H4 receptor (Q9H3N8 whole entry): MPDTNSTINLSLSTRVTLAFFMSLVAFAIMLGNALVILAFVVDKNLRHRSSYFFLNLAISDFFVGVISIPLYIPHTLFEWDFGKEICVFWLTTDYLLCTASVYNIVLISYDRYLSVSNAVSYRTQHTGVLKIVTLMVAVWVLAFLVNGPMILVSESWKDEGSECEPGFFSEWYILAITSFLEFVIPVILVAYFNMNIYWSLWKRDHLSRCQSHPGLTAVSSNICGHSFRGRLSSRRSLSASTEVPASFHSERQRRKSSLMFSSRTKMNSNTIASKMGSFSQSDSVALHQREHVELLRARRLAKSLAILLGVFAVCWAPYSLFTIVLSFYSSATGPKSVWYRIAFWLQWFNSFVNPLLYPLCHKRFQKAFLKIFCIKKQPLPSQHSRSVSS

Row | Compound | Activation of the receptor (decrease of cAMP content in response to forskolin) [1] | Difference in ear thickness (×0.01 mm), Mean ([2]; s.c. 30 min before and 2, 4 h after croton oil, Indomethacin 30 mg/kg, measured 6 h after croton oil) | % inhib of ear swelling ([2]; versus vehicle group, Indomethacin 30 mg/kg s.c.)
1 | NCCc1c[nH]cn1 [Histamine] | specifically activated | – | –
2 | COc1ccc2c(c1)c(CC(=O)O)c(C)n2C(=O)c1ccc(Cl)cc1 [Indomethacin] | – | 10.0 ×0.01 mm | (−40%)
